From patent publication US20150141433A1, “N-ARYLMETHYL SULFONAMIDE NEGATIVE MODULATORS OF NR2A” (Mnemosyne Pharmaceuticals, Inc., priority 2013, published 2015)
pIC50: −log10 of the molar value.

molecular target: T1, NR1/NR2A (Homo sapiens, UniProt Q05586+Q12879); experiment: FDSS Ca2+ influx inhibition assay in HEK293 cells expressing NR1/NR2A; assay type: cell-based; conditions: 3 μM glutamate, 3 μM glycine, 1 mM Ca2+, Ca2+ influx inhibition relative to MK801, read-out: NR2A IC50
T1 construct: host or cells: HEK293 (tetracycline-inducible NR2A expression)
T1 sequence (Q12879 23-1464, other chains not shown): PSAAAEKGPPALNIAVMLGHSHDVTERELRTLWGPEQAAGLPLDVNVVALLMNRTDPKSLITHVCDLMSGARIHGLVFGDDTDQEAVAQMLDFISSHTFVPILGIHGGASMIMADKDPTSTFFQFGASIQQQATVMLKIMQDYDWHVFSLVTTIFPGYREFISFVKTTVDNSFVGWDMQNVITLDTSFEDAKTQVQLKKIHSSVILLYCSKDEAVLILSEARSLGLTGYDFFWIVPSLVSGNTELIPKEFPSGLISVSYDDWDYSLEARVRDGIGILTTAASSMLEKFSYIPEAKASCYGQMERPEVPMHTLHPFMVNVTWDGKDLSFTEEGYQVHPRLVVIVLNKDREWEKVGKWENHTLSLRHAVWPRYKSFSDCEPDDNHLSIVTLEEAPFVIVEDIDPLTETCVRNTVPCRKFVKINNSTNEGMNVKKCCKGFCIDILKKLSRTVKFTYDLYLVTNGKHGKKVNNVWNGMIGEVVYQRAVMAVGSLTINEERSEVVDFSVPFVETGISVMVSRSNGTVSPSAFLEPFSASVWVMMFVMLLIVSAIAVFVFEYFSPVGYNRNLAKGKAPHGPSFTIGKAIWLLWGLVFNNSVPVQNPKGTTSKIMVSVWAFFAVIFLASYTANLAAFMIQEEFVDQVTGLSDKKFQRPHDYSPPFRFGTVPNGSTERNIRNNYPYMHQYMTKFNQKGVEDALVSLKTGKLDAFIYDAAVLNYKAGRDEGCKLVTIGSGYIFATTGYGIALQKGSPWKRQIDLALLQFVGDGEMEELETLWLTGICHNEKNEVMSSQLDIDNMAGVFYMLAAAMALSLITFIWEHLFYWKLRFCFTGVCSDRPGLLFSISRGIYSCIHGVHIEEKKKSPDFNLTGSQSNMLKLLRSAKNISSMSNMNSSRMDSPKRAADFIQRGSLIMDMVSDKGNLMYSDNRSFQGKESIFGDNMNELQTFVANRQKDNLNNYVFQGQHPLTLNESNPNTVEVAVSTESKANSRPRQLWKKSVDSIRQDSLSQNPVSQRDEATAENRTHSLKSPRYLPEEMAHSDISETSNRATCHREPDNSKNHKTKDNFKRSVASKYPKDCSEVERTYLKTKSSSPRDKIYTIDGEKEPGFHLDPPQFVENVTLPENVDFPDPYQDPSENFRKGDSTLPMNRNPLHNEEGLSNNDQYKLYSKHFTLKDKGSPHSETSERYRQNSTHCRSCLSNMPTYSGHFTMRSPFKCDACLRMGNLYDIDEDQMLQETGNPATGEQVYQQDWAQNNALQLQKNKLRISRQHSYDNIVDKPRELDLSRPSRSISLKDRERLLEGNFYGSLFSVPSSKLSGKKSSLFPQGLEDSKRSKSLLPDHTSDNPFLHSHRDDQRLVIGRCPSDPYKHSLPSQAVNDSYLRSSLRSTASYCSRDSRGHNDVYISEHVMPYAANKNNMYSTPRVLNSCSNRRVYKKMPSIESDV
Description: Cell Culture and plating: HEK293 cells expressing NR1/NR2A (Chantest, Cleveland, Ohio) were grown to 70-80% confluency as an adherent monolayer in standard tissue culture flasks at 37° C., 5% CO2 per supplier's instructions.
After induction, cell culture medium was removed and cells were rinsed once with Ca^2+ and Mg^2+-free Dulbecco's phosphate buffered saline. Cells were then removed from the flask using TrypLE™ Express (Life Technologies) according to the manufacturer's instructions and collected to 50 ml centrifuge tubes. Following two washes in Ca^27 Mg^2′-free HBSS with 20 mM HEPES (HHnoCa), cells were counted and viability assessed using trypan blue. To load cells with Ca^2′-sensitive dye, they were resuspended in fluo-8 plus Component B (AAT Bioquest Products) diluted in HHnoCa and incubated 15 minutes at 37° C., followed by 30 minutes at room temp (in dark). Cells were then washed and resuspended in HHnoCa to remove extracellular dye and plated in 384-well plates (Falcon, uncoated) at 20,000-30,000 cells/well in a final volume of 25 μL/well.
FDSS Assay: To each well of the plate, 10 μLtest compound, control (MK801) or HHnoCa buffer was added to a final concentration of 10 μM with a final concentration of DMSO of 0.1%. Following 10 minutes pre-incubation in the dark, plates are loaded onto the Hamamatsu FDSS 6000. After collecting baseline fluorescence images, 3 μM glutamate, 3 μM glycine, and 1 mM Ca^2+ in HHnoCa buffer is added to each well, and Ca^2+ is recorded for 3 minutes. Data were processed by computing ratio of fluorescence at the end of data collection to baseline fluorescence to assess degree of Ca^2+ influx inhibition relative to that observed in MK801.

Point of comparison: `O=C(NCc1cccnc1)c1ccc(CNS(=O)(=O)c2ccc(F)c(Cl)c2)cn1` [5-(3-chloro-4-fluorobenzenesulfon-amidomethyl)-N-(pyridin-3-ylmethyl)pyridine-2-carboxamide], pIC50 6.12. Against it:
- Cc1ncc(CNC(=O)c2cnc(CNS(=O)(=O)c3ccc(Cl)c(Cl)c3)c(C)n2)s1 [5-(3,4-dichlorobenzenesulfon-amidomethyl)-6-methyl-N-[(2-methyl-1,3-thiazol-5-yl)methyl]pyrazine-2-carboxamide] — within 0.2 log units, 6.31
- Cc1ncc(CNC(=O)c2ccc(CNS(=O)(=O)c3ccc(Cl)c(Cl)c3)cn2)s1 [5-(3,4-dichlorobenzenesulfon-amidomethyl)-N-[(2-methyl-1,3-thiazol-5-yl)methyl]pyridine-2-carboxamide] — 0.94 log units lower, 5.18
- Cc1ncc(CNC(=O)c2cnc(CNS(=O)(=O)c3ccc(F)c(F)c3)cn2)s1 [5-(3,4-difluorobenzenesulfon-amidomethyl)-N-[(2-methyl-1,3-thiazol-5-yl)methyl]pyrazine-2-carboxamide] — 0.38 log units higher, 6.50
- Cc1ncc(CNC(=O)c2ccc(CNS(=O)(=O)c3ccc(F)c(F)c3)cn2)s1 [5-(3,4-difluorobenzenesulfon-amidomethyl)-N-[(2-methyl-1,3-thiazol-5-yl)methyl]pyridine-2-carboxamide] — 0.54 log units higher, 6.66
- Cc1ncc(CNC(=O)c2cnc(CNS(=O)(=O)c3cc(F)cc(F)c3)c(C)n2)s1 [5-(3,5-difluorobenzenesulfon-amidomethyl)-6-methyl-N-[(2-methyl-1,3-thiazol-5-yl)methyl]pyrazine-2-carboxamide] — 0.32 log units higher, 6.44
- CCc1nc(C(=O)NCc2cnc(C)s2)cnc1CNS(=O)(=O)c1ccc(F)c(Cl)c1 [5-(3-chloro-4-fluorobenzenesulfon-amidomethyl)-6-ethyl-N-[(2-methyl-1,3-thiazol-5-yl)methyl]pyrazine-2-carboxamide] — 0.94 log units higher, 7.06
- Cc1ncc(CNC(=O)c2cnc(CNS(=O)(=O)c3ccc(F)c(Cl)c3)c(C)n2)s1 [5-(3-chloro-4-fluorobenzenesulfon-amidomethyl)-6-methyl-N-[(2-methyl-1,3-thiazol-5-yl)methyl]pyrazine-2-carboxamide] — 1.59 log units higher, 7.71
- O=C(NCc1ccno1)c1ccc(CNS(=O)(=O)c2ccc(F)c(Cl)c2)cn1 [5-(3-chloro-4-fluorobenzenesulfon-amidomethyl)-N-(1,2-oxazol-5-ylmethyl)pyridine-2-carboxamide] — 0.46 log units lower, 5.66
- O=C(NCc1cnco1)c1ccc(CNS(=O)(=O)c2ccc(F)c(Cl)c2)cn1 [5-(3-chloro-4-fluorobenzenesulfon-amidomethyl)-N-(1,3-oxazol-5-ylmethyl)pyridine-2-carboxamide] — 0.41 log units lower, 5.71
- O=C(NCc1nccs1)c1ccc(CNS(=O)(=O)c2ccc(F)c(Cl)c2)cn1 [5-(3-chloro-4-fluorobenzenesulfon-amidomethyl)-N-(1,3-thiazol-2-ylmethyl)pyridine-2-carboxamide] — 1.08 log units lower, 5.04
- O=C(NCc1cncs1)c1cnc(CNS(=O)(=O)c2ccc(F)c(Cl)c2)cn1 [5-(3-chloro-4-fluorobenzenesulfon-amidomethyl)-N-(1,3-thiazol-5-ylmethyl)pyrazine-2-carboxamide] — within 0.2 log units, 6.03
- O=C(NCc1cncs1)c1ccc(CNS(=O)(=O)c2ccc(F)c(Cl)c2)cn1 [5-(3-chloro-4-fluorobenzenesulfon-amidomethyl)-N-(1,3-thiazol-5-ylmethyl)pyridine-2-carboxamide] — 0.34 log units higher, 6.46
- O=C(NCc1cnccn1)c1cnc(CNS(=O)(=O)c2ccc(F)c(Cl)c2)cn1 [5-(3-chloro-4-fluorobenzenesulfon-amidomethyl)-N-(pyrazin-2-ylmethyl)pyrazine-2-carboxamide] — 0.44 log units lower, 5.68
- O=C(NCc1cnccn1)c1ccc(CNS(=O)(=O)c2ccc(F)c(Cl)c2)cn1 [5-(3-chloro-4-fluorobenzenesulfon-amidomethyl)-N-(pyrazin-2-ylmethyl)pyridine-2-carboxamide] — 0.35 log units lower, 5.77
- O=C(NCc1cccnc1)c1cnc(CNS(=O)(=O)c2ccc(F)c(Cl)c2)cn1 [5-(3-chloro-4-fluorobenzenesulfon-amidomethyl)-N-(pyridin-3-ylmethyl)pyrazine-2-carboxamide] — 0.24 log units higher, 6.36
- O=C(NCc1ccncc1)c1cnc(CNS(=O)(=O)c2ccc(F)c(Cl)c2)cn1 [5-(3-chloro-4-fluorobenzenesulfon-amidomethyl)-N-(pyridin-4-ylmethyl)pyrazine-2-carboxamide] — 0.35 log units lower, 5.77
- O=C(NCc1cncnc1)c1cnc(CNS(=O)(=O)c2ccc(F)c(Cl)c2)cn1 [5-(3-chloro-4-fluorobenzenesulfon-amidomethyl)-N-(pyrimidin-5-ylmethyl)pyrazine-2-carboxamide] — 0.80 log units lower, 5.32
- O=C(NCc1cncnc1)c1ccc(CNS(=O)(=O)c2ccc(F)c(Cl)c2)cn1 [5-(3-chloro-4-fluorobenzenesulfon-amidomethyl)-N-(pyrimidin-5-ylmethyl)pyridine-2-carboxamide] — 0.99 log units lower, 5.13
- Cc1ncc(C(C)NC(=O)c2cnc(CNS(=O)(=O)c3ccc(F)c(Cl)c3)cn2)s1 (centres unmarked) [5-(3-chloro-4-fluorobenzenesulfon-amidomethyl)-N-[1-(2-methyl-1,3-thiazol-5-yl)ethyl]pyrazine-2-carboxamide] — 0.62 log units higher, 6.74
- CC(NC(=O)c1ccc(CNS(=O)(=O)c2ccc(F)c(Cl)c2)cn1)c1ccco1 (centres unmarked) [5-(3-chloro-4-fluorobenzenesulfon-amidomethyl)-N-[1-(furan-2-yl)ethyl]pyridine-2-carboxamide] — 0.86 log units lower, 5.26
- CC(NC(=O)c1ccc(CNS(=O)(=O)c2ccc(F)c(Cl)c2)cn1)c1cccs1 (centres unmarked) [5-(3-chloro-4-fluorobenzenesulfon-amidomethyl)-N-[1-(thiophen-2-yl)ethyl]pyridine-2-carboxamide] — 0.50 log units lower, 5.62
- Cc1ccc(CNC(=O)c2cnc(CNS(=O)(=O)c3ccc(F)c(Cl)c3)cn2)n1C [5-(3-chloro-4-fluorobenzenesulfon-amidomethyl)-N-[(1,5-dimethyl-1H-pyrrol-2-yl)methyl]pyrazine-2-carboxamide] — the same, 6.12
- Cn1cncc1CNC(=O)c1cnc(CNS(=O)(=O)c2ccc(F)c(Cl)c2)cn1 [5-(3-chloro-4-fluorobenzenesulfon-amidomethyl)-N-[(1-methyl-1H-imidazol-5-yl)methyl]pyrazine-2-carboxamide] — 1.07 log units lower, 5.05
- Cn1cncc1CNC(=O)c1ccc(CNS(=O)(=O)c2ccc(F)c(Cl)c2)cn1 [5-(3-chloro-4-fluorobenzenesulfon-amidomethyl)-N-[(1-methyl-1H-imidazol-5-yl)methyl]pyridine-2-carboxamide] — 1.04 log units lower, 5.08
- Cn1cc(CNC(=O)c2ccc(CNS(=O)(=O)c3ccc(F)c(Cl)c3)cn2)cn1 [5-(3-chloro-4-fluorobenzenesulfon-amidomethyl)-N-[(1-methyl-1H-pyrazol-4-yl)methyl]pyridine-2-carboxamide] — 0.78 log units lower, 5.34
- Cn1cccc1CNC(=O)c1cnc(CNS(=O)(=O)c2ccc(F)c(Cl)c2)cn1 [5-(3-chloro-4-fluorobenzenesulfon-amidomethyl)-N-[(1-methyl-1H-pyrrol-2-yl)methyl]pyrazine-2-carboxamide] — 0.61 log units lower, 5.51
- Cn1cccc1CNC(=O)c1ccc(CNS(=O)(=O)c2ccc(F)c(Cl)c2)cn1 [5-(3-chloro-4-fluorobenzenesulfon-amidomethyl)-N-[(1-methyl-1H-pyrrol-2-yl)methyl]pyridine-2-carboxamide] — 0.53 log units lower, 5.59
- C[C@@H](NC(=O)c1cnc(CNS(=O)(=O)c2ccc(F)c(Cl)c2)cn1)c1cncs1 [5-(3-chloro-4-fluorobenzenesulfon-amidomethyl)-N-[(1R)-1-(1,3-thiazol-5-yl)ethyl]pyrazine-2-carboxamide] — 1.14 log units lower, 4.98
- COc1cc(CNC(=O)c2cnc(CNS(=O)(=O)c3ccc(F)c(Cl)c3)cn2)ccn1 [5-(3-chloro-4-fluorobenzenesulfon-amidomethyl)-N-[(2-methoxypyridin-4-yl)methyl]pyrazine-2-carboxamide] — within 0.2 log units, 6.07
- COc1cc(CNC(=O)c2ccc(CNS(=O)(=O)c3ccc(F)c(Cl)c3)cn2)ccn1 [5-(3-chloro-4-fluorobenzenesulfon-amidomethyl)-N-[(2-methoxypyridin-4-yl)methyl]pyridine-2-carboxamide] — 0.60 log units lower, 5.52
- Cc1ncc(CNC(=O)c2cnc(CNS(=O)(=O)c3ccc(F)c(Cl)c3)c(C(F)(F)F)n2)s1 [5-(3-chloro-4-fluorobenzenesulfon-amidomethyl)-N-[(2-methyl-1,3-thiazol-5-yl)methyl]-6-(trifluoromethyl)pyrazine-2-carboxamide] — 0.65 log units higher, 6.77
- Cc1ncc(CNC(=O)c2ccc(CNS(=O)(=O)c3ccc(F)c(Cl)c3)cn2)s1 [5-(3-chloro-4-fluorobenzenesulfon-amidomethyl)-N-[(2-methyl-1,3-thiazol-5-yl)methyl]pyridine-2-carboxamide] — 0.57 log units higher, 6.69
- COc1cccc(CNC(=O)c2ccc(CNS(=O)(=O)c3ccc(F)c(Cl)c3)cn2)c1 [5-(3-chloro-4-fluorobenzenesulfon-amidomethyl)-N-[(3-methoxyphenyl)methyl] pyridine-2-carboxamide] — 0.65 log units lower, 5.47

same assay, conditions: binned NR2A inhibition concentration, read-out: Binned Activity

With `Cc1ncc(CNC(=O)c2ccc(CNS(=O)(=O)c3c(C)noc3C)cn2)s1` the pIC50 was < 5.00.
